Patent US20260217705A1, “POLYMORPHS OF THE HYDROBROMIDE SALT OF LINAPRAZAN GLURATE” (CINCLUS PHARMA HOLDING AB (PUBL), priority 2023, published 2026)
Entries after “also recorded” stand apart in the source; their conditions may differ. Like-named read-outs stand apart in the source and are kept apart here. Each block holds one compound with its values, some of them ahead of it.

How the values were obtained:
[1] = cited from earlier work
[2] = Dynamic/gravimetric vapour sorption (DVS/GVS) hygroscopicity; format: physicochemical; settings: for hygroscopicity (in words): DVS/GVS at 25° C.
Experimental: Analyses were performed on an SMS DVS Advantage instrument. A few mg of the substance was added into an Al pan and exposed to stepwise RH changes according to 0-90-20% in steps of 10% RH, using open loop mode. The experiments were performed using a gas flow rate of 200 mL/min and at 25° C. The dm/dt criteria applied was 0.001 weight-%/min during a 5-minute window, with a maximum allowed time of 150 minutes and a minimum allowed time of 50 minutes for all steps except for the step at 0% RH, which had no criteria but was set to 6 h.
The hygroscopicity of Form A (as obtained from the synthesis described in Example 1), Form B (as obtained from a slurry in methanol/water 4:1) and Form C (as obtained from a slurry in ethanol) were investigated using GVS at 25° C. […] Form A can thus be classified as non-hygroscopic.
With a weight gain of about 3% at elevated humidities, it appears that a hydrate form is formed. Upon drying, Form B returned to the anhydrate; see FIGS. 12A and 12B, respectively.
Form C is thus classified as non-hygroscopic.

[3] = Thermogravimetric analysis (TGA) weight loss; format: physicochemical; settings: heating up to 175° C.
Experimental: Analyses were performed on a PerkinElmer TGA8000 instrument. A few mg of sample was gently charged into open Pt-pans and analysed by weight in a flow of dry nitrogen gas (40 mL/min), to ensure an inert atmosphere. The sample was scanned from 25 to 200° C. using a continuous scan speed of 10° C./min.
This confirms that Form A is an anhydrate.

intragastric acidity = settings: cited from earlier work
[4] = cited from earlier work; remark: listed apart in the source
gastric acid = settings: Phase I and II studies; cited from earlier work
clinical = settings: human, in vivo
Experimental: Linaprazan glurate is a prodrug of linaprazan, which was disclosed in WO 99/55706 and previously studied in Phase I and II studies. […] A clinical Phase I study has shown that administration of a single dose of linaprazan glurate can maintain the intragastric acidity above pH 4 for 24 hours. Linaprazan glurate is therefore tailored for patients with severe erosive gastroesophageal reflux disease (eGERD).
Whereas the plasma concentration of linaprazan glurate is only very low and difficult to determine, the plasma concentration of linaprazan may be determined instead. […] It is estimated that this requires a minimal plasma concentration (Cmin) of linaprazan of at least about 240 nmol/L after 22 hours. At such doses, a once daily oral administration of the formulation would be sufficient. In some embodiments, therefore, a single unit dose of a pharmaceutical composition of linaprazan glurate provides a Cmin of linaprazan in a human of at least about 240 nmol/L after 22 hours following oral administration of the pharmaceutical composition to said human. In other embodiments, a daily administration of two unit doses of a pharmaceutical composition of linaprazan glurate provides a Cmin of linaprazan in a human of at least about 240 nmol/L after 10 hours following oral administration of the last unit dose of the pharmaceutical composition to said human.

[5] = GVS at 25° C., humidity range of 0-90%

SMILES: Cc1cccc(C)c1CNc1cc(C(=O)NCCOC(=O)CCCC(=O)O)cn2c(C)c(C)nc12 [Form A of the free base]
solubility in water ([1]; pH 1): slightly soluble
solubility in water ([1]; pH 6.8): practically insoluble

SMILES: Br.Cc1cccc(C)c1CNc1cc(C(=O)NCCOC(=O)CCCC(=O)O)cn2c(C)c(C)nc12 [Form A]
water uptake ([2]; DVS, at 80% RH): about 0.15%
hygroscopicity (in words) [2]: non-hygroscopic; also recorded: very low hygroscopicity
water uptake [2, 5]: ~0.22%
weight loss [3]: 0.3%

SMILES: Cc1cccc(C)c1CNc1cc(C(=O)NCCOC(=O)CCCC(=O)O)cn2c(C)c(C)nc12 [linaprazan glurate, 5-{2-[({8-[(2,6-dimethylbenzyl)amino]-2,3-dimethylimidazo[1,2-a]pyridine-6-yl}carbonyl)-amino]ethoxy}-5-oxopentanoic acid]
control of gastric acid production (intragastric acidity; compared to linaprazan): total control of the gastric acid production for a longer time
time intragastric acidity maintained above pH 4 (intragastric acidity; single dose, Phase I): 24 hours
plasma concentration ([4]; after absorption): only very low
half-life in the body ([4]; compared to linaprazan): longer half-life
metabolism after absorption into the blood stream ([4]; in vivo): quickly metabolized into linaprazan

Further lines, with some results ahead:

weight gain ([2]; GVS at 25° C., elevated humidities): about 3%
weight loss [3]: 0.3%
SMILES: Br.Cc1cccc(C)c1CNc1cc(C(=O)NCCOC(=O)CCCC(=O)O)cn2c(C)c(C)nc12 [Form B]
hygroscopicity (in words) [2]: significant water uptake with increasing humidity

water content ([2]; DVS, at 90% RH): not more than 0.05%
hygroscopicity (in words) [2]: non-hygroscopic; also recorded: very low
water uptake [2, 5]: about 0.05%
weight loss [3]: 0.2%
SMILES: Br.Cc1cccc(C)c1CNc1cc(C(=O)NCCOC(=O)CCCC(=O)O)cn2c(C)c(C)nc12 [Form C]

concentration at 22 h (clinical): ≥ 240 nM
SMILES: Cc1cccc(C)c1CNc1cc(C(=O)NCCO)cn2c(C)c(C)nc12 [linaprazan]
duration of acid inhibition (gastric acid): too short duration
elimination from the body (gastric acid): quickly eliminated from the body
onset of action (gastric acid): fast onset of action
tolerability (gastric acid): well tolerated
